The conditions of data set [1]: cited from earlier work.
Data set [2] has as its system epithelial cells/adenocytes and connective tissue/capillaries. Description: Preferential staining of epithelial cells/adenocytes or connective tissue/capillaries. The format is in vivo, mouse. To be noted: 5 mg/ml for curcumin, 1 mg/ml for all other dyes.
Method: Drinking water containing 2% (w/v) dextran sodium sulfate (DSS) was given to 8-week-old C57B6 mice (male, approximately 20 g) for 7 days. After intraperitoneal injection of 0.2 ml of 5% chloral hydrate for anesthesia, the mouse abdominal wall was incised vertically to about 1 cm, and the gastrointestinal tract was raised over the abdominal wall to about 1 cm. Blood flow to the gastrointestinal tract was maintained during this time by the blood vessel flowing into the mesenteric attachment site. The gastrointestinal tract was incised vertically to about 1 cm on opposite side of the mesenteric attachment site, including the tunica muscularis and mucosa. The opposite side of the mesenteric attachment site was incised in order to prevent severance and damage of the blood vessel and minimize bleeding. When the incision site of the gastrointestinal tract was opened vertically, the mucosal surface of the gastrointestinal tract, as the food channel, became visible. When food digestion products were present they were wiped off with tissue paper.
In order to more clearly observe the gastrointestinal tract mucosal surface, a 1% pronase solution was dropped onto the mucosal surface and was allowed to stand still for 15 minutes. This pronase treatment removed the mucus from the mucosal surface, rendering the cell structure more easily visible. Next, the pronase was removed from the mucosal surface and rinsed with physiological saline (PBS).
A metal ring (outer diameter: 16 millimeters, inner diameter, 6 millimeters) was placed on a laboratory stage, and a rapid bonding adhesive (AronAlpha) was coated over the entire periphery of the ring surface on one side. Forceps were used to hold the rapid bonding adhesive-coated metal ring with the adhesive-coated surface facing downward, and it was set on the pronase-treated mucosal surface. During a period of about 5 minutes, the metal ring became anchored to the mucosa with the rapid bonding adhesive, and the region where the dye compound was to be applied was rinsed with PBS.
In order to avoid drying of the mucosal surface, a curcumin stock solution or sulfuretin stock solution diluted with physiological saline (PBS) (see Tables 1 to 3 for the dilution factors) was added dropwise onto the pronase-treated mucosal surface, and after allowing it to stand for 1 minute, it was rinsed 3 times with PBS, a cover glass was placed over the metal ring, and the objective lens of a multiphoton laser microscope (FV1000 MPE by Olympus Corp.) was brought near to the top of the cover glass for image observation.
The procedure from administration of the dye compound to observation was conducted as described above under “Evaluation of stainability” (same hereunder). Also, the administered concentration of dye to the mucosal surface was 5 mg/ml for curcumin as Dye No. 1, and 1 mg/ml for all of the other dyes.
Data set [3] has as its system MDCK-GFP-Ras^V12 cells mixed with MDCK normal cells. Put plainly: In vitro assay of MDCK-Ras^V12 cancerized cell small aggregates as a very early cancer model. To be noted: excitation 750, 800, 850, 900 nm, red fluorescence. The class given is cell-based, canine.
Method: The MDCK normal cells were cultured in a 10 cm dish, and the MDCK-GFP-Ras^V12 cells were cultured in a 6 cm dish. The culture solution used for the MDCK normal cells was DMEM (containing Phenol Red)+10% FBS+penicillin/streptomycin.
The solution used for the MDCK-GFP-Ras^V12 cells was DMEM (containing Phenol Red)+10% FBS+penicillin/streptomycin+Zeocin (400 μg/ml)+blasticidin (5 μg/ml). […] The seeding was carried out using a DMEM+10% FBS+penicillin/streptomycin culture solution, to 1.0 to 3.0×10^4 cells per well of the 96-well dish. Tetracycline at a concentration of 2 μg/ml was added to the culture solution after 4 days when seeding was to 1.0×10^4 or after 1 day when seeding was to 3.0×10^4, and GFP-Ras^V12 was expressed, forming cancerized cell small aggregates among the MDCK normal cells (NPL 3). After 18 to 36 hours, the cells in each of the wells were rinsed 3 times with 200 μl of PBS, and then the Prestwick Chemical Library compounds and the Ministry of Health, Labour and Welfare-approved food additives, each diluted to 1 μM with a 100 μl volume of PBS, were added to the respective wells and taken up by the cells for 5 minutes at room temperature. They were then rinsed 3 times with 200 μl of PBS, and in certain cases further rinsed once with 100 μl of DMEM without Phenol Red, and observed under a multiphoton laser microscope.
Setting [4] is: Prestwick Chemical Library compounds, 1 μM, 5 minutes.

“Also recorded” adds a separate entry of the source. Structures can show the parent of a compound that is named as a salt. Where two headings read alike, the source gives them in different places.

In the case of `Oc1ccc(-c2ccc3c(O)cc(O)cc3[o+]2)cc1.[Cl-]` [Apigeninidin], the LD50 in data set [1] (Mouse, Oral) was 300 mg/kg.
Regarding `O=C1/C(=C2\Nc3ccc(S(=O)(=O)[O-])cc3C2=O)Nc2ccc(S(=O)(=O)[O-])cc21.[Na+].[Na+]` [Blue #2, indigo carmine], in data set [2], the “Cell group preferentially stained (epithelial cells/adenocytes or connective tissue/capillaries)” value is given as “preferentially stained connective tissue/capillaries”. Also, in data set [1] (Mouse, Oral), the LD50 is 2000 mg/kg.
`CC1=C(/C=C/C(C)=C/C=C/C(C)=C/C=C/C=C(C)/C=C/C=C(C)/C=C/C(=O)[C@]2(C)C[C@@H](O)CC2(C)C)C(C)(C)C[C@H](O)C1` [Capsanthin]: the LD50 in data set [1] (Mouse, Oral) was 300 mg/kg.
As to `COc1cc(-c2ccc(N=Nc3ccc4c(S(=O)(=O)[O-])cc(S(=O)(=O)[O-])c(N)c4c3O)c(OC)c2)ccc1N=Nc1ccc2c(S(=O)(=O)[O-])cc(S(=O)(=O)[O-])c(N)c2c1O.[Na+].[Na+].[Na+].[Na+]` [Chicago sky blue 6B, reference compound], the “Staining of GFP-Ras^V12 positive cancerized cells versus MDCK normal cells” value in data set [3] (setting [4]) was “labeling both cancerized cell small aggregates and normal cells”; in data set [3] (Prestwick Chemical Library compounds, 1 μM, 5 minutes, listed as Chicago Sky Blue 6B), “equal staining of normal cells and cancer cells”.
Turning to `COc1cc(/C=C/C(=O)CC(=O)/C=C/c2ccc(O)c(OC)c2)ccc1O` [Curcumin (pure), Curcumin], the LD50 in data set [1] (mouse, in vivo, po) was 2000 mg/kg.
`O=C(O[C@@H]1Cc2c(O)cc(O)cc2O[C@@H]1c1cc(O)c(O)c(O)c1)c1cc(O)c(O)c(O)c1` [Epigallocatechin gallate]: the “Cell group preferentially stained (epithelial cells/adenocytes or connective tissue/capillaries)” value in data set [2] was “preferentially stained epithelial cells/adenocytes”. Also, the LD50 in data set [1] (Mouse, Oral) is given as 2170 mg/kg.
Take `CCCCC[C@H](O)CC(=O)CCc1ccc(O)c(OC)c1` [Gingerol, 6-gingerol]: the “Cell group preferentially stained (epithelial cells/adenocytes or connective tissue/capillaries)” value in data set [2] is on record as “preferentially stained epithelial cells/adenocytes”. In data set [1] (mouse, in vivo, po), the LD50 is on record as 250 mg/kg.
As to `CC1(C)C(/C=C/C=C/C=C/C=C2\N(CCCCS(=O)(=O)O)c3ccc4ccccc4c3C2(C)C)=[N+](CCCCS(=O)(=O)[O-])c2ccc3ccccc3c21` [Indocyanine green, reference compound], in data set [2], the “Cell group preferentially stained (epithelial cells/adenocytes or connective tissue/capillaries)” value was “preferentially stained epithelial cells/adenocytes”.
For the compound `COc1cc(-c2[o+]c3cc(O)cc(O)c3cc2O)cc(OC)c1O` [Malvidin], in data set [1] (Mouse, Intra-venous), the LD50 is reported as 18 mg/kg.
`O=c1c(O)c(-c2cc(O)c(O)c(O)c2)oc2cc(O)cc(O)c12` [Myricetin]: the “Cell group preferentially stained (epithelial cells/adenocytes or connective tissue/capillaries)” value in data set [2] was “preferentially stained epithelial cells/adenocytes”. The LD50 in data set [1] (Mouse, Oral) is given as 300 mg/kg.
On to `Oc1ccc(-c2[o+]c3cc(O)cc(O)c3cc2O)cc1` [Pelargonidin], for which, in data set [1] (Mouse, Oral), the LD50 is reported as 300 mg/kg.
`COc1cc(-c2[o+]c3cc(O)cc(O)c3cc2O)cc(O)c1O` [Petunidine]: the “Cell group preferentially stained (epithelial cells/adenocytes or connective tissue/capillaries)” value in data set [2] was “preferentially stained epithelial cells/adenocytes”. Further, the LD50 in data set [1] (Mouse, Intra-abdominal) is 4110 mg/mL.
Regarding `O=c1c(O)c(-c2ccc(O)c(O)c2)oc2cc(O)cc(O)c12` [Quercetin], the “Cell group preferentially stained (epithelial cells/adenocytes or connective tissue/capillaries)” value in data set [2] was “intensely stained connective tissue/capillaries and faintly stained epithelial cells/adenocytes”.
In the case of `O=S(=O)([O-])c1ccc2c(N=Nc3ccc(S(=O)(=O)[O-])c4ccccc34)c(O)c(S(=O)(=O)[O-])cc2c1.[Na+].[Na+].[Na+]` [Red #2], the LD50 in data set [1] (Mouse, Intra-abdominal) is given as 1000 mg/kg.
On to `O=C([O-])c1c(Cl)c(Cl)c(Cl)c(Cl)c1-c1c2cc(I)c(=O)c(I)c-2oc2c(I)c([O-])c(I)cc12.[Na+].[Na+]` [Red #105 (720 nm)], for which the LD50 in data set [1] (Mouse, Oral) was 6480 mg/kg.
For the compound `CCN(CC)c1ccc2c(-c3ccc(S(=O)(=O)[O-])cc3S(=O)(=O)[O-])c3ccc(=[N+](CC)CC)cc-3oc2c1.[Na+]` [Red #106, Acid Red], the “Staining of GFP-Ras^V12 positive cancerized cells versus MDCK normal cells” value in data set [3] (Ministry of Health, Labour and Welfare-approved food additives, 1 mg/ml) was “labeled both cancerized cell small aggregates and normal cells; also recorded: staining of both normal cells and cancer cells”. For the same compound, the “Cell group preferentially stained (epithelial cells/adenocytes or connective tissue/capillaries)” value in data set [2] is “the cell membranes of epithelial cells and adenocytes, and connective tissue/capillaries were strongly stained”. Further, the LD50 in data set [1] (Mouse, Oral) was >20,000 mg/kg; in data set [1] (Mouse, Oral, listed as Acid Red), over 20000 mg/kg.
On to `Oc1ccc2cc(O)c(-c3cc(O)c(O)c(O)c3)[o+]c2c1` [Robinetinidin], for which the “Cell group preferentially stained (epithelial cells/adenocytes or connective tissue/capillaries)” value in data set [2] is reported as “preferentially stained connective tissue/capillaries”.
`Oc1cc(O)c2ccc(-c3cc(O)c(O)c(O)c3)[o+]c2c1` [Tricetinidin]: the “Cell group preferentially stained (epithelial cells/adenocytes or connective tissue/capillaries)” value in data set [2] is reported as “preferentially stained epithelial cells/adenocytes”. In addition, the LD50 in data set [1] (Mouse, Oral) is 300 mg/kg.
`O=C(O)c1nn(-c2ccc(S(=O)(=O)O)cc2)c(O)c1N=Nc1ccc(S(=O)(=O)O)cc1` [Yellow #4, tartrazine]: the LD50 in data set [1] (Mouse, Oral) is recorded as 12750 mg/kg.
Take `O=S(=O)([O-])c1ccc(N=Nc2c(O)ccc3cc(S(=O)(=O)[O-])ccc23)cc1.[Na+].[Na+]` [Yellow #5, Sunset Yellow FCF]: the LD50 in data set [1] (Mouse, Oral) is over 6000 mg/kg.
For the compound `COc1cccc2c1C(=O)c1c(O)c3c(c(O)c1C2=O)C[C@@](O)(C(=O)CO)C[C@@H]3O[C@H]1C[C@H](N)[C@H](O)[C@H](C)O1` [doxorubicin hydrochloride, reference compound], the “Staining of GFP-Ras^V12 positive cancerized cells versus MDCK normal cells” value in data set [3] (Prestwick Chemical Library compounds, 1 μM, 5 minutes, hydrochloride) is “intensely labeling MDCK normal cells compared to cancerized cell small aggregates; also recorded: GFP-Ras^V12 cells were not specifically stained, but normal cells were stained”.
Regarding `O=C([O-])c1ccccc1-c1c2cc(Br)c(=O)cc-2oc2[c]([Hg+])c([O-])c(Br)cc12.[Na+].[Na+].[OH-]` [merbromin, reference compound], the “Staining of GFP-Ras^V12 positive cancerized cells versus MDCK normal cells” value in data set [3] (setting [4]) is recorded as “intensely labeled in GFP-Ras^V12 positive cancerized cell small aggregates compared to normal cells; also recorded: GFP-Ras^V12 positive cells were preferentially stained”.
Consider “meclocycline sulfosalicylate [reference compound]”, for which the “Staining of GFP-Ras^V12 positive cancerized cells versus MDCK normal cells” value in data set [3] (setting [4]) was “intensely labeled in GFP-Ras^V12 positive cancerized cell small aggregates compared to normal cells; also recorded: GFP-Ras^V12 positive cells were preferentially stained”.

The values above are taken from patent US11293870B2, “Vital stain” (Mie University, priority 2013, dated 2022).
